Assay: Compound was evaluated for inhibition of hormone stimulated Adenylate cyclase activity in N18TG2 membranes.

Row | SMILES | EC50 [nM]
1 | O=C(c1cccc2ccccc12)c1cn(CCN2CCOCC2)c2ccccc12 | 275
2 | Cc1c(C(=O)c2cccc3ccccc23)c2ccccc2n1CCN1CCOCC1 | 370
3 | Cc1c(C(=O)c2ccc(N=C=S)c3ccccc23)c2ccccc2n1CCN1CCOCC1 [(4-Isothiocyanato-naphthalen-1-yl)-[2-methyl-1-(2-morpholin-4-yl-ethyl)-1H-indol-3-yl]-methanone] | 3000
4 | O=C(c1cccc2ccccc12)c1cn(CCN2CCOCC2)c2cc(N=C=S)ccc12 [[6-Isothiocyanato-1-(2-morpholin-4-yl-ethyl)-1H-indol-3-yl]-naphthalen-1-yl-methanone] | 1100

From BindingDB's records for doi:10.1021/jm950932r (National Institute of Diabetes and Digestive and Kidney …, 1996)
